Like-named read-outs stand apart in the source and are kept apart here.
What was measured:
platypus TRPV1 (pV1) = platypus TRPV1 (pV1) (Ornithorhynchus anatinus, UniProt F7A7B4); experiment: Agonist activation, patch clamp, HEK293T; type: cell-based; details: for EC50_Capsaicin: Supp Table 1 data
Tree shrew TRPV1 = Tree shrew TRPV1 (Tupaia chinensis, UniProt L8Y7X1); experiment: Agonist activation, patch clamp, HEK293T; type: cell-based, Tupaia belangeri chinensis; details: read-out: EC50_Capsaicin
Polar bear TRPV1 = Polar bear TRPV1 (Ursus maritimus, UniProt A0A384CG69); experiment: Agonist activation, patch clamp, HEK293T; type: cell-based; details: read-out: EC50_Capsaicin
pV1_mC chimera = pV1_mC chimera (Ornithorhynchus anatinus, UniProt F7A7B4); experiment: Agonist activation, patch clamp, HEK293T; type: cell-based, platypus / mouse; details: read-out: EC50_Capsaicin
pV1_mN chimera = pV1_mN chimera (Ornithorhynchus anatinus, UniProt F7A7B4); experiment: Agonist activation, patch clamp, HEK293T; type: cell-based, platypus / mouse; details: read-out: EC50_Capsaicin
mV1 CΔ28 (Ala800-Ala827) = mV1 CΔ28 (Ala800-Ala827) (Mus musculus, UniProt Q704Y3, DEL800-827); experiment: Agonist activation, patch clamp, HEK293T; type: cell-based; details: read-out: EC50_Capsaicin
mV1 CΔ10 (Phe830-Lys839) = mV1 CΔ10 (Phe830-Lys839) (Mus musculus, UniProt Q704Y3); experiment: Agonist activation, patch clamp, HEK293T; type: cell-based; details: read-out: EC50_Capsaicin
mV1 T371G = mV1 T371G (Mus musculus, UniProt Q704Y3, T371G); experiment: Agonist activation, patch clamp, HEK293T; type: cell-based; details: read-out: EC50_Capsaicin
mV1 F830A = mV1 F830A (Mus musculus, UniProt Q704Y3, F830A); experiment: Agonist activation, patch clamp, HEK293T; type: cell-based; details: read-out: EC50_Capsaicin
mV1 S833A = mV1 S833A (Mus musculus, UniProt Q704Y3, S833A); experiment: Agonist activation, patch clamp, HEK293T; type: cell-based; details: read-out: EC50_Capsaicin
mV1 M834A = mV1 M834A (Mus musculus, UniProt Q704Y3, M834A); experiment: Agonist activation, patch clamp, HEK293T; type: cell-based; details: read-out: EC50_Capsaicin
mV1 P836A = mV1 P836A (Mus musculus, UniProt Q704Y3, P836A); experiment: Agonist activation, patch clamp, HEK293T; type: cell-based; details: read-out: EC50_Capsaicin
mV1 K839A = mV1 K839A (Mus musculus, UniProt Q704Y3, K839A); experiment: Agonist activation, patch clamp, HEK293T; type: cell-based; details: read-out: EC50_Capsaicin
mV1_241 (ANAP) = mV1_241 (ANAP) (Mus musculus, UniProt Q704Y3, K241X); experiment: Agonist activation of ANAP-incorporated channel, patch clamp; type: cell-based
pV1_241 (ANAP) = pV1_241 (ANAP) (Ornithorhynchus anatinus, UniProt F7A7B4); experiment: as above; type: cell-based, platypus
mV1_630 (ANAP) = mV1_630 (ANAP) (Mus musculus, UniProt Q704Y3, S630X); experiment: as above; type: cell-based
mV1_648 (ANAP) = mV1_648 (ANAP) (Mus musculus, UniProt Q704Y3, L648X); experiment: as above; type: cell-based
mV1_654 (ANAP) = mV1_654 (ANAP) (Mus musculus, UniProt Q704Y3, Y654X); experiment: as above; type: cell-based
mouse TRPV1 (mV1) = mouse TRPV1 (mV1) (Mus musculus, UniProt Q704Y3); details: cited from earlier work
Experimental: The heat activation threshold of pV1, at ~35 °C, is slightly higher than the body core temperature of platypus (32 °C)[17],[18] (Fig. 1b, c), again reminiscent of ot ...

pV1_643 (ANAP) = pV1_643 (ANAP) (Ornithorhynchus anatinus, UniProt F7A7B4, S634X)
rTRPV1 = tested on: rTRPV1; parameters: method as in Sanchez-Moreno et al; details: 4 μM capsaicin, ref Sanchez-Moreno et al; cited from earlier work

## COc1cc(CNC(=O)CCCC/C=C/C(C)C)ccc1O [Capsaicin, capsaicin]
Platypus TRPV1 (pV1); replicate 1
  EC50_Capsaicin: 367 nM
Platypus TRPV1 (pV1); replicate 2
  EC50_Capsaicin: 246 nM
Platypus TRPV1 (pV1); replicate 4
  EC50_Capsaicin: 271 nM
Platypus TRPV1 (pV1); replicate 5
  EC50_Capsaicin: 368 nM
Platypus TRPV1 (pV1); whole-cell, 10 μM
  activation of pV1 by capsaicin: currents elicited
Tree shrew TRPV1; mean ± s.e.m., n = 3
  EC50: 5260 nM
Tree shrew TRPV1; replicate 1
  EC50: 4932 nM
Tree shrew TRPV1; replicate 2
  EC50: 5507 nM
Tree shrew TRPV1; replicate 3
  EC50: 5341 nM
Polar bear TRPV1; mean ± s.e.m., n = 3
  EC50: 313 nM
Polar bear TRPV1; replicate 1
  EC50: 262 nM
Polar bear TRPV1; replicate 2
  EC50: 336 nM
Polar bear TRPV1; replicate 3
  EC50: 341 nM
pV1_mC chimera; mean ± s.e.m., n = 6
  EC50: 310 nM
pV1_mC chimera; replicate 3
  EC50: 388 nM
pV1_mC chimera; replicate 4
  EC50: 257 nM
pV1_mC chimera; replicate 5
  EC50: 354 nM
pV1_mC chimera; replicate 6
  EC50: 300 nM
pV1_mN chimera; mean ± s.e.m., n = 6
  EC50: 313 nM
pV1_mN chimera; replicate 2
  EC50: 294 nM
pV1_mN chimera; replicate 3
  EC50: 360 nM
pV1_mN chimera; replicate 5
  EC50: 279 nM
mV1 CΔ28 (Ala800-Ala827); mean ± s.e.m., n = 3
  EC50: 343 nM
mV1 CΔ28 (Ala800-Ala827); replicate 1
  EC50: 256 nM
mV1 CΔ28 (Ala800-Ala827); replicate 2
  EC50: 365 nM
mV1 CΔ28 (Ala800-Ala827); replicate 3
  EC50: 408 nM
mV1 CΔ10 (Phe830-Lys839); mean ± s.e.m., n = 6
  EC50: 354 nM
mV1 CΔ10 (Phe830-Lys839); replicate 1
  EC50: 215 nM
mV1 CΔ10 (Phe830-Lys839); replicate 3
  EC50: 313 nM
mV1 CΔ10 (Phe830-Lys839); replicate 4
  EC50: 407 nM
mV1 CΔ10 (Phe830-Lys839); replicate 5
  EC50: 457 nM
mV1 CΔ10 (Phe830-Lys839); replicate 6
  EC50: 463 nM
mV1 T371G; mean ± s.e.m., n = 3
  EC50: 322 nM
mV1 T371G; replicate 1
  EC50: 349 nM
mV1 T371G; replicate 2
  EC50: 332 nM
mV1 F830A; mean ± s.e.m., n = 3
  EC50: 338 nM
mV1 F830A; replicate 1
  EC50: 286 nM
mV1 F830A; replicate 2
  EC50: 398 nM
mV1 F830A; replicate 3
  EC50: 330 nM
mV1 S833A; mean ± s.e.m., n = 3
  EC50: 344 nM
mV1 S833A; replicate 1
  EC50: 361 nM
mV1 S833A; replicate 2
  EC50: 282 nM
mV1 S833A; replicate 3
  EC50: 389 nM
mV1 M834A; mean ± s.e.m., n = 3
  EC50: 329 ± 23 nM
mV1 M834A; replicate 1
  EC50: 280 nM
mV1 M834A; replicate 2
  EC50: 378 nM
mV1 M834A; replicate 3
  EC50: 329 nM
mV1 P836A; mean ± s.e.m., n = 3
  EC50: 315 nM
mV1 P836A; replicate 1
  EC50: 262 nM
mV1 P836A; replicate 2
  EC50: 364 nM
mV1 K839A; mean ± s.e.m., n = 3
  EC50: 293 nM
mV1 K839A; replicate 1
  EC50: 268 nM
mV1 K839A; replicate 2
  EC50: 292 nM
mV1_241 (ANAP)
  EC50: 290 nM
mV1_241 (ANAP); replicate 1
  EC50_Capsaicin: 256 nM
mV1_241 (ANAP); replicate 2
  EC50_Capsaicin: 283 nM
mV1_241 (ANAP); replicate 3
  EC50_Capsaicin: 296 nM
mV1_241 (ANAP); replicate 4
  EC50_Capsaicin: 299 nM
mV1_241 (ANAP); replicate 5
  EC50_Capsaicin: 316 nM
pV1_241 (ANAP); replicate 3
  EC50_Capsaicin: 288 nM
pV1_241 (ANAP); replicate 5
  EC50_Capsaicin: 322 nM
pV1_241 (ANAP); replicate 6
  EC50_Capsaicin: 342 nM
mV1_630 (ANAP)
  EC50: 299 nM
mV1_630 (ANAP); replicate 1
  EC50_Capsaicin: 325 nM
mV1_630 (ANAP); replicate 2
  EC50_Capsaicin: 289 nM
mV1_630 (ANAP); replicate 3
  EC50_Capsaicin: 310 nM
mV1_630 (ANAP); replicate 4
  EC50_Capsaicin: 272 nM
mV1_648 (ANAP)
  EC50: 296 nM
mV1_648 (ANAP); replicate 1
  EC50_Capsaicin: 301 nM
mV1_648 (ANAP); replicate 2
  EC50_Capsaicin: 286 nM
mV1_648 (ANAP); replicate 3
  EC50_Capsaicin: 312 nM
mV1_648 (ANAP); replicate 5
  EC50_Capsaicin: 289 nM
mV1_654 (ANAP)
  EC50: 304 nM
mV1_654 (ANAP); replicate 1
  EC50_Capsaicin: 324 nM
mV1_654 (ANAP); replicate 2
  EC50_Capsaicin: 298 nM
mV1_654 (ANAP); replicate 3
  EC50_Capsaicin: 284 nM
mV1_654 (ANAP); replicate 4
  EC50_Capsaicin: 310 nM
mV1_654 (ANAP); replicate 5
  EC50_Capsaicin: 267 nM
mV1_654 (ANAP); replicate 6
  EC50_Capsaicin: 341 nM
Mouse TRPV1 (mV1)
  capsaicin sensitivity of heat-desensitized channels: less sensitive
pV1_643 (ANAP); replicate 1
  EC50_Capsaicin: 323 nM
pV1_643 (ANAP); replicate 2
  EC50_Capsaicin: 276 nM
pV1_643 (ANAP); replicate 3
  EC50_Capsaicin: 290 nM
pV1_643 (ANAP); replicate 4
  EC50_Capsaicin: 327 nM
pV1_643 (ANAP); replicate 6
  EC50_Capsaicin: 351 nM
rTRPV1
  capsaicin sensitivity of heat-desensitized rTRPV1: insensitive
